# According to patent US20110039779A1, “IGF-1R BINDING PROTEINS AND ANTAGONISTS” (priority 2007, published 2011):
# pIC50, pKd: −log10 of the molar value. Read-outs that look alike come from different tables or passages of the source. Where a SMILES comes first, the peptide text is derived from it.
# Key:
# insulin receptor/IGF-1R = test: tyrosine phosphorylation of insulin receptor/IGF-1R in L6-hIR cells (Western blot); type: cell-based
# IRS-1 = test: downstream signaling: IRS-1 tyrosine phosphorylation; type: cell-based; details: for pIC50: L6 cells, 3 nM IGF-1, read-out: IRS-1, IC50 for down regulation of the stimulation to the basal level
# Experimental: (§1) The tyrosine phosphorylation of IRS signaling (the 180 kDa band on a tyrosine phosphor Western blot) as well as activation of effectors MAPK 44 and 42 and PKB were analyzed by using antibodies specific for their active forms using methods substantially similar to those described in Example 14 of the '246 PCT application.
# (§2) The effect of select peptides on downstream signaling (MAPK44, MAPK42, PKB/Akt, IRS-1, and IGF-1R) was also measured by studying the signaling in L6 cells predominantly expressing IGF-1R and very limited insulin receptors. […] The antagonistic effect of the peptides can be seen to affect all the downstream signaling from the IGF-1R.
# SW480 cells = type: cell-based; details: for pIC50: read-out: IC50, inhibition of IGF-1 (10 nM)-induced proliferation of SW480 cells
# Experimental: For cell growth/density studies, a mitochondrial activity assay was used, as exemplified by the following. Cells (SW480, MCF-7S8) were propagated in complete medium (DME: F12, 10% FCS (SW 480) or 5% FCS (MCF-7S8, P/S)), trypsinized, and seeded in 96 well plates as 10,000 cells/well in medium with 0.5% FCS. All wells in the periphery were omitted and only filled with medium. […] All treatments are made in triplicates. […] Treatment was continued for 48 hours (SW480 cells) or 72 hours (MCF-7S8 cells) before quantification of the cell density. Media was exchanged each day. Media and peptides were diluted in DMSO. When measuring cell density, the volume of each well was adjusted to […] Pre-diluted WST-1 (1 ml+1.5 ml DME:F12) was added as 25 μL to each well including background samples. Three wells with media only served as background controls. The cells were incubated for 90 min protected against light in an incubator.
# [1] = target: T1, IGF-1R on L6 (with mainly symmetric IGF-1R) (Rattus norvegicus, UniProt P24062); test: displacement of IGF-1 binding on L6 cells
# T1 construct: L6 cells predominantly expressing IGF-1R and very limited insulin receptors; endogenous in cells; host or cells: L6 cells
# MAPK42 = test: downstream signaling in L6 cells: MAPK42; type: cell-based; details: 3 nM IGF-1, read-out: MAPK42, IC50 for down regulation of the stimulation to the basal level
# Experimental: as §1, §2
# [2] = target: human insulin receptor (HIR) (Homo sapiens, UniProt P06213); test: human insulin receptor (HIR) affinity; type: binding; details: printed in brackets under the HIR affinity, not explained
# Experimental: IGF-1R affinity studies were generally performed as follows. […] HIGF-1R was purified from a cell culture of BHK cells stably transfected with IGF-1R cDNA. The day before harvest cells were moved to serum free conditions and before harvest the cells were rinsed with and ice cold PBS solution. The cells were solubilized in cold lysis buffer (4 ml lysis buffer/1×10^8 cells); vortexed vigorously to lysis in lysis buffer (50 mM Hepes (pH 8.0); 150 mM NaCl; 1% Triton X-100; 2 mM EDTA; 10 μg/mlaprotinin; 0.5 mM PEFABLOC (Roche)); and the lysate centrifuged at 4° C., 20000 rpm, for 15 minutes. The HIGF-1R portion was absorbed to WGA-agarose beads and subjected to chromatography purification (Pharmacia biotech No 17-0760-01) (column washed with 20× column volumes wash buffer −50 mM Hepes (pH 8.0); 150 mM NaCl; 0.1% Triton X-100; 0.5 mM PEFABLOC (Roche)). The HIGF-1R portion was then eluted with 0.5 M n-Acetyl Glycosamine (NAG), 10% Glycerol in elution buffer (50 mM Hepes (pH 8.0); 150 mM NaCl; 0.1% Triton X-100; 0.5 mM PEFABLOC (Roche); 0.5 M n-acetyl glucosamine; 10% glycerol). […] After equilibration for 2 days at 4° C., each sample (200 μl) typically was precipitated by addition of 400 μl 25% PEG 6000, centrifuged, washed with 1 ml 15% PEG 6000, and counted in a gamma-counter. In some cases, human insulin receptor (HIR) affinity for select test peptides was similarly measured.
# [3] = tested on: SGBS adipocytes transfected with HIR-encoding DNA; test: 3H glucose incorporation (insulin agonist activity) in SGBS adipocytes; type: cell-based
# Experimental: Insulin increases uptake of ^3H glucose into adipocytes and its conversion into lipid. Incorporation of ^3H into the lipid phase was determined by partitioning of lipid phase into a scintillant mixture, which excludes water-soluble ^3H products. […] The results are expressed as increase relative to full insulin response.
# MCF7 cells = MCF7 cells (Homo sapiens, UniProt P08069); test: antagonism assay in starved MCF7 cells, luminescence viability, 72 hrs; type: cell-based; details: Table 9
# Experimental: Additional binding and antagonism assays using candidate peptides were performed. […] Cell viability was determined by luminescence assay and IC50 was calculated using standard techniques.
# MiaPaCa cells [4] = test: gene expression changes in MiaPaCa cells (gene arrays); type: cell-based, human; details: IGF-1 (25 ng/ml) +/− ANT-429, 24 hours
# MiaPaCa cells [5] = test: MiaPaCa tumor growth inhibition in nude mice; type: in vivo
# Experimental: Nude mice were inoculated with MiaPaCa cells (one million cells in matrigel) on the flank and followed until tumors reached a volume of greater than 100 mm^3. […] Animals were injected by the subcutaneous route 4 times per week for 3 weeks and followed for an additional 2 weeks without injections. Tumors were measured twice weekly. Animals were sacrificed and the tumors excised, weighed and photographed.
# MAPK44 = test: downstream signaling in L6 cells: MAPK44; type: cell-based; details: 3 nM IGF-1, read-out: MAPK44, IC50 for down regulation of the stimulation to the basal level
# Experimental: as §1, §2
# PKB/Akt = test: downstream signaling in L6 cells: PKB/Akt; type: cell-based; details: 3 nM IGF-1, read-out: PKB/Akt, IC50 for down regulation of the stimulation to the basal level
# Experimental: as §1, §2
# IGF-IR = test: downstream signaling in L6 cells: IGF-IR; type: cell-based; details: 3 nM IGF-1, read-out: IGF-IR, IC50 for down regulation of the stimulation to the basal level
# Experimental: as §1, §2
# HIGF-1R = target: T2, HIGF-1R (Homo sapiens, UniProt P08069); test: IGF-1R affinity, scintillation proximity assay (SPA assay), 125I-IGF1 displacement; type: binding
# T2 construct: HIGF-1R was purified from a cell culture of BHK cells stably transfected with IGF-1R cDNA; made in house; host or cells: BHK cells stably transfected with IGF-1R cDNA
# Source text: In certain cases, a scintillation proximity assay (SPA assay) was used to determine IGF-1R affinity.
# T1 sequence (P24062 31-737 limits assumed): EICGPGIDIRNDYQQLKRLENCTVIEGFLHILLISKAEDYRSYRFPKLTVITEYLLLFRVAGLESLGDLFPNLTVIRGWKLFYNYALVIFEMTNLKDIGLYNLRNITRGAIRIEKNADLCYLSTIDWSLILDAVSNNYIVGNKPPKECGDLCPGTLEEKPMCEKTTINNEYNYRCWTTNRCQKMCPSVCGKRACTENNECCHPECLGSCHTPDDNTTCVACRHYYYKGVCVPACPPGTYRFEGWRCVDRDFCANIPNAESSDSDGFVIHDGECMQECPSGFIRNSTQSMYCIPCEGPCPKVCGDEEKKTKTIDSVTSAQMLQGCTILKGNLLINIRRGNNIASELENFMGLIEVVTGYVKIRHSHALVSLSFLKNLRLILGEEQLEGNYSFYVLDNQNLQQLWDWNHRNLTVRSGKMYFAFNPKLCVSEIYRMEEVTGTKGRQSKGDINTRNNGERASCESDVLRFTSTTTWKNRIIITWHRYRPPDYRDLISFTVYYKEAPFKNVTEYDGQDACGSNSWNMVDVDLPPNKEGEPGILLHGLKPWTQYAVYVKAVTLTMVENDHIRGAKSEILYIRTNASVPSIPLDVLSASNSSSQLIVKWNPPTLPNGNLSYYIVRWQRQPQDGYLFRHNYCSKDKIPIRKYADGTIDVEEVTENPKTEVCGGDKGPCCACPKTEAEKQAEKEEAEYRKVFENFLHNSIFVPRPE
# T1 sequence (P24062 742-1370 limits assumed): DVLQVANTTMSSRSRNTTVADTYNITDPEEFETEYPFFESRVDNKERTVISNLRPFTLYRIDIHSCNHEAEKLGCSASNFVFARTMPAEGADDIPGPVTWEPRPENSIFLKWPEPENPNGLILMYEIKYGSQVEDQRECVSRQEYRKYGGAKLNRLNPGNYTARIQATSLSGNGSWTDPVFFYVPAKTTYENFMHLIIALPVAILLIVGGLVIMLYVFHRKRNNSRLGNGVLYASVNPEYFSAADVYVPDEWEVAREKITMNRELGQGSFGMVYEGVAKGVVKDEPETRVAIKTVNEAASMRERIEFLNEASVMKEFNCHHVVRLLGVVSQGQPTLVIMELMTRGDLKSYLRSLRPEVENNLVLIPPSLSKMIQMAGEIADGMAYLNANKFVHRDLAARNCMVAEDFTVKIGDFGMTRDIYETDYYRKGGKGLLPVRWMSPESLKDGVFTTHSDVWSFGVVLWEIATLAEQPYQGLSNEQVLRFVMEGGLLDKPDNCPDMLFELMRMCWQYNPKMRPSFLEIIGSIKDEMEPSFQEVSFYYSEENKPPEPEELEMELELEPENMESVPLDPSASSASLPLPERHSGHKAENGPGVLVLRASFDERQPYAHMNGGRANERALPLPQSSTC
# T2 sequence (P08069 31-736 limits assumed): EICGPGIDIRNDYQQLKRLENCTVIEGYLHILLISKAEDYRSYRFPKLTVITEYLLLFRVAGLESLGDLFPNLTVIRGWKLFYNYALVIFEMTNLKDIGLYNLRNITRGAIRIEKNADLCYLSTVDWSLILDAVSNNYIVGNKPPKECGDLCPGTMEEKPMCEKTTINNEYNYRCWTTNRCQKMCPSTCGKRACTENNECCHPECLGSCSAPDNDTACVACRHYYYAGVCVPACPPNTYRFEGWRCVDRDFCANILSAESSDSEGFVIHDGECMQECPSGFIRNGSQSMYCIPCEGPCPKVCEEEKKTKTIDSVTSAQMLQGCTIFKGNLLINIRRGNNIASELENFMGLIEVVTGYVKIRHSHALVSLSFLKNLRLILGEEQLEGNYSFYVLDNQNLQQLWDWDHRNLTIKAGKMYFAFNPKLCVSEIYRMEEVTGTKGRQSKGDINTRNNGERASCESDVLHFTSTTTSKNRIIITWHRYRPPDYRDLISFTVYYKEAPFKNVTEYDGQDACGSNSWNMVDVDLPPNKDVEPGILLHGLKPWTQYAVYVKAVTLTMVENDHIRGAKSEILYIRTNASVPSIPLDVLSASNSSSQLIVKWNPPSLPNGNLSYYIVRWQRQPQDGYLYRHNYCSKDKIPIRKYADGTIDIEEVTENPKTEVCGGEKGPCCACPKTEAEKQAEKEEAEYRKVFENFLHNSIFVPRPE
# T2 sequence (P08069 741-1367 limits assumed): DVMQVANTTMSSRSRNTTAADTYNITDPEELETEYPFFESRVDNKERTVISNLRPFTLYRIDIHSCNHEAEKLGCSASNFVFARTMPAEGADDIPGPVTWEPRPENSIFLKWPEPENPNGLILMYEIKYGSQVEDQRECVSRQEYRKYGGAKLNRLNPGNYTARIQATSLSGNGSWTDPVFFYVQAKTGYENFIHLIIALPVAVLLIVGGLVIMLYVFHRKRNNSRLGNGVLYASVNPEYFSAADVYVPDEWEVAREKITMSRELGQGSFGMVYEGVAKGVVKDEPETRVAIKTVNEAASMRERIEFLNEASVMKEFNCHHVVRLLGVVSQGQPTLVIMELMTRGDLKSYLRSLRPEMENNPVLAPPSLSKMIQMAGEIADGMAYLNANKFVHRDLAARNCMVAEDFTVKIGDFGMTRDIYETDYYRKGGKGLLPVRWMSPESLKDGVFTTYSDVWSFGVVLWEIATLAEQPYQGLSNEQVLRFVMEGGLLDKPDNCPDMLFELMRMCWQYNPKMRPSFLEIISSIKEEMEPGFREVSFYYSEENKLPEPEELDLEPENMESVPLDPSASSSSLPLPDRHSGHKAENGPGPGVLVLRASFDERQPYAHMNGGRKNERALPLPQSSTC
# MCF7 cells, sequence (P08069 31-736): as the sequence (P08069 31-736 limits assumed) above
# human insulin receptor (HIR), sequence (P06213 28-758 limits assumed): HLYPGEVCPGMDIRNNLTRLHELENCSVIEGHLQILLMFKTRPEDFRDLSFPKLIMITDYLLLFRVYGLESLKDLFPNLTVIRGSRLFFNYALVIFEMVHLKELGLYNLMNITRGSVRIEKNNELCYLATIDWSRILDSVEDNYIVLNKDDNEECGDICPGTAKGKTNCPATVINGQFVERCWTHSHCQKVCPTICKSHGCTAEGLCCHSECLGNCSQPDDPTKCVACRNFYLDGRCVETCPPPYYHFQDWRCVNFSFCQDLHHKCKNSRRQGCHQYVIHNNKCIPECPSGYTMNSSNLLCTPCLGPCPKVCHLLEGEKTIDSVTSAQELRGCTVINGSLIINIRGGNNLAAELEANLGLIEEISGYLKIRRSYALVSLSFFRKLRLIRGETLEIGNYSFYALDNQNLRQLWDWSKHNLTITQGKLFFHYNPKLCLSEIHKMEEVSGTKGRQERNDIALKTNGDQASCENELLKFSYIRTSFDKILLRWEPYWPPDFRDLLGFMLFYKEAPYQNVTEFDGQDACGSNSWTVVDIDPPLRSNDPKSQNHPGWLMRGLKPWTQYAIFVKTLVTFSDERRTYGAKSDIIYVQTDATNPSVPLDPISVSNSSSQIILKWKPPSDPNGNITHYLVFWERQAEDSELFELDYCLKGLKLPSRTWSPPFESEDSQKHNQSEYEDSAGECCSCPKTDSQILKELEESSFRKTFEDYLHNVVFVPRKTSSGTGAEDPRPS
# human insulin receptor (HIR), sequence (P06213 763-1382 limits assumed): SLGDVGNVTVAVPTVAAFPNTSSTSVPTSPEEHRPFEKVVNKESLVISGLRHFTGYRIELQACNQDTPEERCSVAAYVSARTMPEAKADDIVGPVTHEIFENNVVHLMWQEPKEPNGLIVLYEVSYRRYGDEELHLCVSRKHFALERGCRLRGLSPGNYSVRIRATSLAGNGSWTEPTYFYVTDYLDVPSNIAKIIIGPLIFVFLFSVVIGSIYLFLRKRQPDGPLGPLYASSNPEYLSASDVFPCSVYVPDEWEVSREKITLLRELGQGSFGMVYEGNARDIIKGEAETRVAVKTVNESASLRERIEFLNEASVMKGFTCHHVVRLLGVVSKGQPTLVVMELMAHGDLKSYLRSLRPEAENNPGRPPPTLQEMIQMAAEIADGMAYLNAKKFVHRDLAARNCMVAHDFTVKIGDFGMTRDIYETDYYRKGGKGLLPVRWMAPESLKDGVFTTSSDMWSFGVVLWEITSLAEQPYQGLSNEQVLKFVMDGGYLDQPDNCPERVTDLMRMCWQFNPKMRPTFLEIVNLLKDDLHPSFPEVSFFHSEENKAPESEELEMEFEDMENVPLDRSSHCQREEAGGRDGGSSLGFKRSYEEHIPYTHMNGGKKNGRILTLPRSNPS
molecule,measurement,setting,value
QFYGCLLDLSLGVPSFGWRRRCITA [Peptide F138],inhibition of IGF-1 induced versus insulin induced phosphorylation,insulin receptor/IGF-1R,Some selectivity for inhibiting IGF-1 induced tyrosine phosphorylation as compared to insulin induced phosphorylation
same,pIC50,IRS-1,6.52
same,IC50 in SW480 (M) in presence of IGF-1/alone: in presence of IGF-1,"SW480 cells; first value of the cell: concentration needed to blunt the effect of 10 nM IGF-1, cells in words only = effect as reported, 48 hours",Antagonistic
same,"inhibition of basal growth of SW480, doses",SW480 cells; without IGF-1,> 100 nM
same,concentration displacing IGF-1 binding to IGF-1R on L6,[1],100 nM
same,pIC50,MAPK42,6.52
same,"HIR affinity, value in brackets",[2],(0.013%)
same,effect on glucose uptake induced by insulin or IGF-1,"[3]; SGBS adipocytes, FIGS. 1A and 1B",neither peptide F138 nor peptide F293 has any substantial effect on glucose uptake induced by insulin or IGF-1
same,doses not affecting glucose uptake in response to insulin/IGF-1,[3]; SGBS cells,< 5 µM
DFYGCLLDLSLGVPSLGWRRRCITA [Peptide F429],Activity,MCF7 cells,Antagonist
same,changes in apoptosis gene expression,MiaPaCa cells [4],modulate apoptosis genes
same,"complete remission, animals",MiaPaCa cells [5]; […] (50 ug/injection),one
same,animals responding to treatment,"MiaPaCa cells [5]; […] (50 ug/injection), subcutaneous 4 times per week for 3 weeks",Two out of five
same,tumor growth,"MiaPaCa cells [5]; group printed as 15 mg/kg (design: 300 ug/injection, 12 mg/kg), subcutaneous 4 times per week for 3 weeks",significant inhibition of growth
same,"complete remission, animals","MiaPaCa cells [5]; group printed as 15 mg/kg, subcutaneous 4 times per week for 3 weeks",one
same,potency for inhibiting down stream signaling through IRS-1 upon IGF-1 stimulation,"IRS-1; +/−3 nM IGF-1, FIG. 7 and FIG. 8",potency of F429 is higher than F138
same,pIC50,IRS-1,7.40
same,pIC50,SW480 cells; experiment 13717-019,6.30
same,pIC50,SW480 cells; experiment 13717-027,6.00
same,pIC50,MAPK44,7.00
same,pIC50,MAPK42,6.52
same,pIC50,PKB/Akt,7.00
same,pIC50,IGF-IR,7.30
CC(C)C[C@H](NC(=O)[C@H](CCC(=O)O)NC(=O)[C@H](CCC(=O)O)NC(=O)[C@H](CS)NC(=O)[C@H](CO)NC(=O)[C@H](Cc1ccc(O)cc1)NC(=O)[C@H](Cc1ccccc1)NC(=O)[C@@H](N)CO)C(=O)N[C@H](C(=O)N[C@@H](CCC(N)=O)C(=O)NCC(=O)N1CCC[C@H]1C(=O)N[C@@H](C)C(=O)N[C@@H](CCC(=O)O)C(=O)N[C@@H](CCCCN)C(=O)N[C@@H](CO)C(=O)N[C@@H](CCCCN)C(=O)NCC(=O)N[C@@H](CCC(N)=O)C(=O)N[C@@H](Cc1c[nH]c2ccccc12)C(=O)N[C@@H](CCC(=O)O)C(=O)NCC(=O)N[C@@H](CS)C(=O)N[C@@H](CCCCN)C(=O)N[C@@H](CCCCN)C(=O)O)C(C)C [Peptide F370] (H-SFYSCEELVQGPAEKSKGQWEGCKK-OH),pKd,HIGF-1R,4.64
